This note sets out measurements from paper PMC8901439 (Molecular Cell, 2022).

What all share (format): biochemical
Experiment [1] addresses T1, Dnmt1 (Mus musculus, UniProt P13864, R1576A/N1580A). As to the kind of experiment: single-turnover azidoalkylation kinetics on hemimethylated 25-mer DNA.
Experiment [2] addresses T2, Dnmt1 (Mus musculus, UniProt P13864, N1580A). The description is as above.
Experiment [3] addresses T1, Dnmt1. The experiment is described as follows: single-turnover methylation kinetics on hemimethylated 25-mer DNA.
In experiment [4] the target is Dnmt1 (Mus musculus, UniProt P13864). The description is as above.
Sequence of Dnmt1 (Mus musculus, UniProt P13864) (P13864 291-1620): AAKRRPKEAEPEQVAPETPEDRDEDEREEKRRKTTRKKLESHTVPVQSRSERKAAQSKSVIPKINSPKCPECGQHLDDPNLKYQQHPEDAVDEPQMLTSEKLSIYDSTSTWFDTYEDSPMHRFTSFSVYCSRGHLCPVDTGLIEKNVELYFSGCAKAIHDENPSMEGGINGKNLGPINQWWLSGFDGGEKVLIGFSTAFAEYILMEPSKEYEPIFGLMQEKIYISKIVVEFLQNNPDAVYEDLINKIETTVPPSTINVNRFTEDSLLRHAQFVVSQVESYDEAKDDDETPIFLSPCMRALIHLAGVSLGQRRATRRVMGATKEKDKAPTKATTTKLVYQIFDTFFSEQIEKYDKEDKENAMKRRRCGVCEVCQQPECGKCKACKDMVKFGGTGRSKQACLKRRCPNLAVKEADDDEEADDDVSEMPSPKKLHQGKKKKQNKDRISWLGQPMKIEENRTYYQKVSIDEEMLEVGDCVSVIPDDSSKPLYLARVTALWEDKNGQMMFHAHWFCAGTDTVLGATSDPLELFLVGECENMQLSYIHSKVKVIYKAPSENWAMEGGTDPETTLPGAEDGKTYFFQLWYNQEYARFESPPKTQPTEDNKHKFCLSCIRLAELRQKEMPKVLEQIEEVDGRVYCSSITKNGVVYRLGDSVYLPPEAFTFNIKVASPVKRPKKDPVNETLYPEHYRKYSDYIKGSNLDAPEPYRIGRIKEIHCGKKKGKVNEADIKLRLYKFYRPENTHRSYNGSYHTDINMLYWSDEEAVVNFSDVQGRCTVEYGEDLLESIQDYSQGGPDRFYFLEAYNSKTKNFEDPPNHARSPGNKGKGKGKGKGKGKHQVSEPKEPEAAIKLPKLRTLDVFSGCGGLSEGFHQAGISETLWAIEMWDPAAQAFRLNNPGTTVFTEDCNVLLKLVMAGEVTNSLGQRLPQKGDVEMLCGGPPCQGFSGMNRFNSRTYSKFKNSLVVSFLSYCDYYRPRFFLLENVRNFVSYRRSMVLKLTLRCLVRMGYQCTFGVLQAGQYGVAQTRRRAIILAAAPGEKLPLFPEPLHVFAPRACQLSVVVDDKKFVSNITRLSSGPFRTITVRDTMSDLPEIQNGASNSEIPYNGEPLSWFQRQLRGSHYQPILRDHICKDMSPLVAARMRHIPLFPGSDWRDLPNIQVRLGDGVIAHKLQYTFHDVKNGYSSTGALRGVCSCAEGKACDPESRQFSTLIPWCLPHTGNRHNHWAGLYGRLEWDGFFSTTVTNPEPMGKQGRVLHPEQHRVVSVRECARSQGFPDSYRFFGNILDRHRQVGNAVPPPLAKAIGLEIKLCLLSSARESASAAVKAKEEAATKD
For experiment [5], the target named is T2, Dnmt1. Described as above.

T2 sequence (P13864 291-1620 N1580A): as the sequence (P13864 291-1620) above, with N1290A counted along it
T1 sequence (P13864 291-1620 R1576A/N1580A): as the sequence (P13864 291-1620) above, with R1286A, N1290A counted along it

`[N-]=[N+]=NCCCC#CC[S+](CC[C@H](N)C(=O)O)C[C@H]1O[C@@H](n2cnc3c(N)ncnc32)[C@H](O)[C@@H]1O` (mixture of isomers) [Ado-6-azide]: the entries for the “kchem^Ado-6-azide azidoalkylation / min^-1” value on Dnmt1 [1] and on Dnmt1 [2] were 0.27 ± 0.025 min⁻¹ and 1.4 ± 0.13 min⁻¹, respectively.
Take `C[S+](CC[C@H](N)C(=O)[O-])C[C@H]1O[C@@H](n2cnc3c(N)ncnc32)[C@H](O)[C@@H]1O` (some centres unmarked) [AdoMet]: the “kchem^AdoMet methylation / min^-1” value on Dnmt1 [3] worked out at 0.035 ± 0.002 min⁻¹; at Dnmt1 [4], 3.0 ± 0.13 min⁻¹; on Dnmt1 [5] it was 0.104 ± 0.002 min⁻¹.
